In the NIST ThermoML archive (doi:10.1021/je034279l):

Legend:
[1] = 298.15 K; for surface tension liquid-gas: Pendant drop shape; for mass density: 101.33 kPa, Liquid
[2] = xn = mol fraction of the nth substance listed; conditions: 298.15 K; for surface tension liquid-gas: Pendant drop shape; for excess molar volume: 101 kPa, Liquid

Cc1ccccc1C [1,2-dimethylbenzene]
[1]
Conditions | mass density [kg/m3] | surface tension liquid-gas [mN/m]
– | 875.92 | 29.35

Cc1ccccc1C [1,2-dimethylbenzene] + CC(C)OC(C)C
[2]
Conditions | excess molar volume [m3/mol] | surface tension liquid-gas [mN/m]
x2 = 0.0506 | -1.77e-07 | –
x2 = 0.0997 | -3.15e-07 | –
x2 = 0.1022 | – | 27.21
x2 = 0.1501 | -4.49e-07 | –
x2 = 0.2003 | -5.74e-07 | –
x2 = 0.201 | – | 25.55
x2 = 0.2503 | -6.91e-07 | –
x2 = 0.3003 | -7.82e-07 | –
x2 = 0.3018 | – | 24.17
x2 = 0.35 | -8.39e-07 | –
x2 = 0.4004 | -8.83e-07 | –
x2 = 0.4037 | – | 23.01
x2 = 0.4497 | -9.22e-07 | –
x2 = 0.4997 | – | 22
x2 = 0.505 | -9.36e-07 | –
x2 = 0.5505 | -9.48e-07 | –
x2 = 0.5998 | – | 21.03
x2 = 0.6001 | -9.1e-07 | –
x2 = 0.6509 | -8.82e-07 | –
x2 = 0.7 | -8.11e-07 | –
x2 = 0.7013 | – | 20
x2 = 0.7502 | -7.47e-07 | –
x2 = 0.7987 | – | 19.15
x2 = 0.7999 | -6.31e-07 | –
x2 = 0.8502 | -5.11e-07 | –
x2 = 0.8987 | – | 18.08
x2 = 0.8997 | -3.69e-07 | –
x2 = 0.9493 | -2.1e-07 | –

Cc1ccccc1C [1,2-dimethylbenzene] + COC(C)(C)C
[2]
Conditions | surface tension liquid-gas [mN/m]
x2 = 0.0997 | 27.9
x2 = 0.1996 | 26.62
x2 = 0.3012 | 25.28
x2 = 0.4008 | 24.14
x2 = 0.4997 | 23.12
x2 = 0.6012 | 22.17
x2 = 0.7002 | 21.3
x2 = 0.8 | 20.57
x2 = 0.8999 | 19.78

Cc1cccc(C)c1 [1,3-dimethylbenzene]
[1]
Conditions | mass density [kg/m3] | surface tension liquid-gas [mN/m]
– | 859.78 | 28.36

Cc1cccc(C)c1 [1,3-dimethylbenzene] + CC(C)OC(C)C
[2]
Conditions | excess molar volume [m3/mol] | surface tension liquid-gas [mN/m]
x2 = 0.0514 | -1.35e-07 | –
x2 = 0.1002 | -2.42e-07 | –
x2 = 0.1019 | – | 26.38
x2 = 0.1526 | -3.55e-07 | –
x2 = 0.1997 | -4.41e-07 | –
x2 = 0.2111 | – | 24.88
x2 = 0.2501 | -5.2e-07 | –
x2 = 0.3002 | -5.79e-07 | 23.72
x2 = 0.3498 | -6.37e-07 | –
x2 = 0.3999 | – | 22.67
x2 = 0.4001 | -6.7e-07 | –
x2 = 0.4516 | -7.11e-07 | –
x2 = 0.4991 | – | 21.73
x2 = 0.5012 | -7.15e-07 | –
x2 = 0.5509 | -7.18e-07 | –
x2 = 0.6001 | -6.92e-07 | –
x2 = 0.6006 | – | 20.86
x2 = 0.65 | -6.71e-07 | –
x2 = 0.6944 | -6.17e-07 | –
x2 = 0.6994 | – | 19.91
x2 = 0.7498 | -5.58e-07 | –
x2 = 0.7998 | – | 19.02
x2 = 0.8005 | -4.77e-07 | –
x2 = 0.8506 | -3.93e-07 | –
x2 = 0.8981 | – | 18.12
x2 = 0.8998 | -2.83e-07 | –
x2 = 0.95 | -1.64e-07 | –

Cc1cccc(C)c1 [1,3-dimethylbenzene] + COC(C)(C)C
[2]
Conditions | surface tension liquid-gas [mN/m]
x2 = 0.1019 | 27.13
x2 = 0.2019 | 26.05
x2 = 0.3028 | 24.98
x2 = 0.4014 | 23.99
x2 = 0.4996 | 23.01
x2 = 0.6006 | 22.08
x2 = 0.7009 | 21.26
x2 = 0.8001 | 20.49
x2 = 0.9004 | 19.76

Cc1ccc(C)cc1 [1,4-dimethylbenzene]
[1]
Conditions | mass density [kg/m3] | surface tension liquid-gas [mN/m]
– | 856.85 | 27.89

COC(C)(C)C [2-methoxy-2-methylpropane]
[1]
Conditions | mass density [kg/m3] | surface tension liquid-gas [mN/m]
– | 735.48 | 19.25

COC(C)(C)C [2-methoxy-2-methylpropane] + Cc1ccc(C)cc1
[2]
Conditions | surface tension liquid-gas [mN/m]
x1 = 0.1008 | 26.85
x1 = 0.1998 | 25.81
x1 = 0.3012 | 24.78
x1 = 0.4026 | 23.84
x1 = 0.4997 | 22.96
x1 = 0.6004 | 22.08
x1 = 0.6993 | 21.24
x1 = 0.8 | 20.48
x1 = 0.9002 | 19.78

CC(C)OC(C)C [diisopropyl ether]
[1]
Conditions | mass density [kg/m3] | surface tension liquid-gas [mN/m]
– | 718.38 | 17.31

CC(C)OC(C)C [diisopropyl ether] + Cc1ccc(C)cc1
[2]
Conditions | excess molar volume [m3/mol] | surface tension liquid-gas [mN/m]
x1 = 0.0527 | -1.36e-07 | –
x1 = 0.0988 | – | 26.3
x1 = 0.1016 | -2.79e-07 | –
x1 = 0.15 | -3.98e-07 | –
x1 = 0.2011 | -5.1e-07 | –
x1 = 0.2012 | – | 24.84
x1 = 0.2527 | -5.88e-07 | –
x1 = 0.2991 | – | 23.73
x1 = 0.3004 | -6.58e-07 | –
x1 = 0.3509 | -7.3e-07 | –
x1 = 0.4007 | -7.61e-07 | –
x1 = 0.4045 | – | 22.68
x1 = 0.4506 | -7.85e-07 | –
x1 = 0.5044 | -8.02e-07 | –
x1 = 0.5096 | – | 21.66
x1 = 0.5507 | -7.95e-07 | –
x1 = 0.6002 | -7.87e-07 | –
x1 = 0.603 | – | 20.76
x1 = 0.6498 | -7.56e-07 | –
x1 = 0.7 | – | 19.91
x1 = 0.7007 | -7.02e-07 | –
x1 = 0.7497 | -6.25e-07 | –
x1 = 0.7987 | – | 19.02
x1 = 0.7999 | -5.37e-07 | –
x1 = 0.8512 | -4.32e-07 | –
x1 = 0.898 | – | 18.18
x1 = 0.9 | -3.18e-07 | –
x1 = 0.9507 | -1.78e-07 | –
